Experimental findings from PubChem BioAssay AID504461 (NMMLSC, 2011) are described below.

The term EC50 denotes the concentration needed to bring the measured effect to its halfway point.

Experiment [1] in a line: yeast TOR pathway CIT2-GFP reporter analogs – flow cytometry, KU set 2, dose response, SAR follow-up (AID 504461). The note with it: S. cerevisiae CIT2-GFP strain, flow cytometry GFP, 3 h. (In general: A flow cytometer gives signals particle by particle.)
The test system of experiment [2] is S. cerevisiae CIT2-GFP strain, flow cytometry GFP, 3 h. The experiment is described as above.

Active and inactive are the calls of the source.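 The calls were made as follows: active = compounds whose fitted half-effect concentration on CIT2 GFP level is 33 micromolar or lower; inactive = the rest.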

For `CCOC(=O)c1c(N)nc(NC)nc1Nc1cccc(F)c1`, the GFP fluorescence (kMESF) in experiment [1] (at 300 µM (top of the series)) was 5.12 kMESF (inactive).
As for `CNc1nc(N)c([N+](=O)[O-])c(Nc2ccccc2F)n1`, in experiment [1] (at 100 µM (top of the series)), the GFP fluorescence (kMESF) is 4.24 kMESF (inactive).
On to `Cc1cc(Nc2cc(-c3ccccc3)nc(NCc3ccccc3)n2)n[nH]1`, for which the GFP fluorescence (kMESF) in experiment [1] (at 300 µM (top of the series)) was 4.23 kMESF (inactive).
On to `CNc1nc(NC2CCCCC2)c([N+](=O)[O-])c(N2CCOCC2)n1`, for which, in experiment [1] (at 100 µM (top of the series)), the GFP fluorescence (kMESF) is 3.39 kMESF (inactive).
`COc1cccc(-c2cc(Nc3cc(C)[nH]n3)nc(NCc3ccccc3)n2)c1`: in experiment [1] (at 300 µM (top of the series)), the GFP fluorescence (kMESF) was 4.64 kMESF (inactive).
Regarding `CNc1nc(N)c([N+](=O)[O-])c(Nc2cccc(OC)c2)n1`, the GFP fluorescence (kMESF) in experiment [1] (at 100 µM (top of the series)) was 5.3 kMESF (inactive).
In the case of `CNc1nc(N)c(C(=O)c2ccc(C)c(C)c2)c(Nc2cccc(Cl)c2)n1`, the EC50 in experiment [2] is 129 µM (inactive).
Regarding `CNc1nc(N)cc(Nc2cccc(Cl)c2)n1`, the GFP fluorescence (kMESF) in experiment [1] (at 300 µM (top of the series)) is 4.78 kMESF (inactive).
`CCNc1nc(NC2CCCCC2)c([N+](=O)[O-])c(N2CCOCC2)n1`: the GFP fluorescence (kMESF) in experiment [1] (at 100 µM (top of the series)) is 3.39 kMESF (inactive).
In the case of `O=[N+]([O-])c1c(NC2CCCCC2)nc(NCc2ccccc2)nc1N1CCOCC1`, the GFP fluorescence (kMESF) in experiment [1] (at 300 µM (top of the series)) was 4.5 kMESF (inactive).
Turning to `CNc1nc(NC)c([N+](=O)[O-])c(Nc2cccc(Cl)c2)n1`, in experiment [1] (at 100 µM (top of the series)), the GFP fluorescence (kMESF) is 3.32 kMESF (inactive).
Consider `COC(=O)c1cccc(-c2cc(Nc3cc(C)[nH]n3)nc(NCc3ccccc3)n2)c1`, for which, in experiment [1] (at 300 µM (top of the series)), the GFP fluorescence (kMESF) is 4.85 kMESF (inactive).
Turning to `CNc1nc(N)c([N+](=O)[O-])c(Nc2ccccc2Br)n1`, the GFP fluorescence (kMESF) in experiment [1] (at 100 µM (top of the series)) was 3.6 kMESF (inactive).
For the compound `Cc1cc(Nc2cc(Nc3ccccc3)nc(NCc3ccccc3)n2)n[nH]1`, in experiment [1] (at 300 µM (top of the series)), the GFP fluorescence (kMESF) is 4.57 kMESF (inactive).
For `CNc1nc(N)c([N+](=O)[O-])c(Nc2cccc(Br)c2)n1`, the GFP fluorescence (kMESF) in experiment [1] (at 100 µM (top of the series)) is 5.3 kMESF (inactive).
Regarding `CNc1nc(N)cc(Oc2cccc(Cl)c2)n1`, the GFP fluorescence (kMESF) in experiment [1] (at 300 µM (top of the series)) was 3.55 kMESF (inactive).
On to `CNc1nc(N)c([N+](=O)[O-])c(Nc2cccc(Oc3ccccc3)c2)n1`, for which the GFP fluorescence (kMESF) in experiment [1] (at 100 µM (top of the series)) is 3.53 kMESF (inactive).
Consider `CCNc1nc(N)c([N+](=O)[O-])c(Nc2cccc(Cl)c2)n1`, for which the EC50 in experiment [2] was 73.5 µM (inactive).
Turning to `CNc1nc(N)cc(Nc2ccccc2F)n1`, the GFP fluorescence (kMESF) in experiment [1] (at 300 µM (top of the series)) is 5.53 kMESF (inactive).
Still for that read-out and setting: the same measure for `COc1ccccc1-c1cc(Nc2cc(C)[nH]n2)nc(NCc2ccccc2)n1`: 4.5 kMESF (inactive).
